Measurements taken from patent publication US20220251109A1, “OXAAZAQUINAZOLINE-7(8H)-KETONE COMPOUND, PREPARATION METHOD THEREFOR AND PHARMACEUTICAL APPLICATION THEREOF” (GENFLEET THERAPEUTICS (SHANGHAI) INC., priority 2019, published 2022).
Where two headings read alike, the source gives them in different places.

What was measured:
Format in all cases: cell-based, human
[1] = tested on: NCI-H358 cells (Kras G12C mutation); test: Cell proliferation inhibition experiment, 3D model, CellTiter-Glo (NCI-H358); settings: NCI-H358, 3D sphere plate, 5 days, 2% FBS
Summary of the method: (§1)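 NCI-H358 (800 cells/well) and A549 (400 cells/well) were grown as overnight 3D spheroids in 2% FBS medium, then exposed 5 days to 3.16-fold compound dilutions (0.1% DMSO). Viability was read by CellTiter-Glo luminescence; IC50 came from a four-parameter fit of inhibition normalised to DMSO and medium blanks.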

[2] = tested on: A549 cells (Kras G12S mutation); test: Cell proliferation inhibition experiment, 3D model, CellTiter-Glo (A549); settings: A549, 3D sphere plate, 5 days, 2% FBS
Summary of the method: as §1

[3] = tested on: p-ERK in MIA PaCa2 cells (Kras G12C mutation); test: Cell p-ERK detection experiment (HTRF) in MIA PaCa2 cells; settings: compound 2 hours
Description: MIA PaCa2 was a human pancreatic cancer cell line with Kras G12C mutation, cultured in 10% FBS+2.5% Horse serum DMEM medium. The cells in the logarithmic growth phase were taken, digested with enzyme EDTA, collected, counted and 2.5E4 cells were seeded in a 96-well cell culture plate, cultured overnight. DMSO was used to prepare 1000× compound 3.16-fold gradient concentration stock solution, and medium was used to dilute 200-fold to 5× compound stock solution. On the second day after cell seeding, 5× compound stock solution was added to each cell culture well, the final concentration was 1×, and DMSO content was 0.1%. DMSO was used as an experimental control (control). After the compound was added and cultured for two hours, the remaining medium was removed. 50 ul cell lysis buffer was added to each well, mixed and incubated for 30 minutes, then 16 ul of the mixture was transferred to a 96-well plate with a non-transparent white bottom, and 16 ul cell lysis buffer was added to blank wells. After the completion of the transfer, 4 ul p-ERK HTRF antibody mixture was added to each well, incubated for 4 hours and the fluorescence value was read. The compound inhibition rate IR (%)=(RLU control-RLU compound)/(RLU control-RLU blank)×100% was calculated, Prism 8 four-parameter method was used to fit the compound's gradient dilution concentration and the corresponding cell proliferation inhibition rate, and the IC50 value was calculate.

[4] = tested on: MIA PaCa-2 cells (Kras G12C mutation); test: Cell proliferation inhibition experiment, 3D model, CellTiter-Glo (MIA PaCa-2); settings: MIA PaCa-2, 3D sphere plate, 5 days, read-out: MIA-PaCa2 IC50
Description: MIA PaCa2 was a human pancreatic cancer cell line with Kras G12C mutation, cultured in 10% FBS+2.5% Horse serum DMEM medium; A549 was a human lung adenocarcinoma cell line with Kras G12S mutation, cultured in 10% FBS F-12K medium. The cells in the logarithmic growth phase were taken, digested with enzyme EDTA, collected, counted and 200 MIA PaCa-2 or 400 A549 cells were seeded in a 384-well sphere plate respectively, cultured overnight to establish a 3D cell model. DMSO was used to prepare 1000× compound 3.16-fold gradient concentration stock solution, and medium was used to dilute 100-fold to 10× compound stock solution. On the second day after cell seeding, 10× compound stock solution was added to each cell culture well, the final concentration was 1×, and DMSO content was 0.1%. DMSO was used as an experimental control (control), medium as the blank control (blank). After the compound and cells were added and cultured for 5 days, 30 μl CellTiter-Glo working solution was added to each well, mixed and incubated for 30 minutes. After 30 minutes at room temperature, 40 μl of the mixture was transferred to a 384-well plate with a non-transparent white bottom, the luminescence chemiluminescence value was read, and the cells proliferation inhibition rate IR (%)=(RLU control-RLU compound)/(RLU control-RLU blank)×100% was calculated, XLFit four-parameter method was used to fit the compound's gradient dilution concentration and the corresponding cell proliferation inhibition rate, and the IC50 value was calculate.

[5] = Homo sapiens, MIA PaCa-2, 120 h

IC50 [1] | IC50 ([2]; Homo sapiens, A549, 120 h) | IC50 ([3]; Homo sapiens, MIA PaCa-2, 2 h) | IC50 [4] | IC50 ([1]; Homo sapiens, NCI-H358, 120 h) | IC50 [4, 5] | IC50 [2] | IC50 [3] | Compound
12 nM | > 10 µM | 128 nM | 22 nM |  |  |  |  | C=CC(=O)N1CCN2c3nc(=O)n(-c4c(C)ccnc4C(C)C)c4nc(-c5ccc(F)cc5F)c(Cl)c(c34)OC[C@@H]2C1 [Compound Z49]
 | > 10 µM | 16 nM |  | 3 nM | 5 nM |  |  | C=CC(=O)N1CCN2c3nc(=O)n(-c4c(C)cc(=O)n(C)c4C(C)C)c4nc(-c5ccccc5F)c(Cl)c(c34)OC[C@H]2C1 [Compound Z121]
 | > 30 µM | 47 nM |  | 4 nM | 7 nM |  |  | C=CC(=O)N1CCN2c3nc(=O)n(-c4c(OC)ncnc4C(C)C)c4nc(-c5c(O)cccc5F)c(F)c(c34)OC[C@H]2C1 [Compound Z111]
 | > 10 µM | 45 nM |  | 4 nM | 6 nM |  |  | C=CC(=O)N1CCN2c3nc(=O)n(-c4c(C)ccnc4C(C)C)c4nc(-c5ccccc5Cl)c(F)c(c34)OC[C@H]2C1 [Compound Z79]
 | 18.7 µM | 54 nM |  | 3 nM | 6 nM |  |  | C=CC(=O)N1CCN2c3nc(=O)n(-c4c(C)ccnc4C(C)C)c4nc(-c5c(O)cccc5F)c(F)c(c34)OC[C@@H]2C1 [Compound Z85]
 | > 10 µM | 105 nM |  | 13 nM | 22 nM |  |  | C=CC(=O)N1CCN2c3nc(=O)n(-c4c(C)ccnc4C(C)C)c4nc(-c5ccccc5F)c(F)c(c34)OC[C@@H]2C1 [Compound Z84]
7 nM |  |  |  |  | 19 nM | > 30 µM | 35 nM | C=CC(=O)N1CCN2c3nc(=O)n(-c4nccnc4C(C)C)c4nc(-c5c(O)cccc5F)c(F)c(c34)OC[C@H]2C1 [Compound Z107-2]
5 nM |  |  |  |  | 11 nM | > 30 µM | 20 nM | C=CC(=O)N1CCN2c3nc(=O)n(-c4nccnc4C(C)C)c4nc(-c5c(O)cccc5F)c(Cl)c(c34)OC[C@H]2C1 [Compound Z105-2]
1 nM |  |  |  |  | 2 nM | > 10 µM | 8 nM | C=CC(=O)N1CCN2c3nc(=O)n(-c4c(C)ccnc4C(C)C)c4nc(-c5ccc(F)cc5F)c(Cl)c(c34)OC[C@H]2C1 (single isomer, unassigned) [Compound Z76-2]
2 nM |  |  |  |  | 2 nM | > 10 µM | 7 nM | C=CC(=O)N1CCN2c3nc(=O)n(-c4c(C)ncnc4C(C)C)c4nc(-c5cccc(F)c5F)c(Cl)c(c34)OC[C@H]2C1 (single isomer, unassigned) [Compound Z96-2]
1 nM |  |  |  |  | 2 nM | 5.55 µM | 9 nM | C=CC(=O)N1CCN2c3nc(=O)n(-c4c(C)ccnc4C(C)C)c4nc(-c5ccccc5F)c(Cl)c(c34)OC[C@H]2C1 (single isomer, unassigned) [Compound Z87-2]
 | > 10 µM | 112 nM |  | 2 nM |  |  |  | C=CC(=O)N1CCN2c3nc(=O)n(-c4c(C)ccnc4C(C)C)c4nc(-c5c(F)cccc5OC)c(Cl)c(c34)OC[C@H]2C1 [Compound Z75]
 | > 10 µM | 86 nM |  | 4 nM |  |  |  | C=CC(=O)N1CCN2c3nc(=O)n(-c4c(C)ncnc4C(C)C)c4nc(-c5c(O)cccc5F)c(Cl)c(c34)OC[C@H]2C1 [Compound Z88]
2 nM |  |  |  |  |  | 4.22 µM | 16 nM | C=CC(=O)N1CCN2c3nc(=O)n(-c4c(C)ccnc4C(C)C)c4nc(-c5cccc(Cl)c5F)c(Cl)c(c34)OC[C@H]2C1 [Compound Z91]
52 nM | 11.3 µM |  |  |  |  |  | 248 nM | C=CC(=O)N1CCN2c3nc(=O)n(-c4c(C)ncnc4C(C)C)c4nc(-c5ccccc5F)c(Cl)c(c34)OC[C@H]2C1 (single isomer, unassigned) [Compound Z95-1]
1 nM | 12.1 µM |  |  |  |  |  | 9 nM | C=CC(=O)N1CCN2c3nc(=O)n(-c4c(C)ccnc4C(C)C)c4nc(-c5c(F)cccc5OC)c(Cl)c(c34)OC[C@H]2C1 (single isomer, unassigned) [Compound Z83-1]
28 nM |  |  |  |  |  | > 10 µM | 185 nM | C=CC(=O)N1CCN2c3nc(=O)n(-c4nccnc4C(C)C)c4nc(-c5ccccc5F)c(Cl)c(c34)OC[C@H]2C1 (atropisomer, axis not shown) [Compound Z104-2]
9 nM |  |  |  |  |  | > 10 µM | 116 nM | C=CC(=O)N1CCN2c3nc(=O)n(-c4c(C)ccnc4C(C)C)c4nc(-c5c(O)cccc5F)c(F)c(c34)OC[C@H]2C1 (atropisomer, axis not shown) [Compound Z73-1]
19 nM | > 30 µM |  |  |  |  |  | 226 nM | C=CC(=O)N1CCN2c3nc(=O)n(-c4nccnc4C(C)C)c4nc(-c5c(O)cccc5F)c(F)c(c34)OC[C@H]2C1 (atropisomer, axis not shown) [Compound Z107-1]
30 nM |  |  |  |  |  | 10.1 µM | 93 nM | C=CC(=O)N1CCN2c3nc(=O)n(-c4c(C)ccnc4C(C)C)c4nc(-c5cccc(Cl)c5F)c(Cl)c(c34)OC[C@H]2C1 (atropisomer, axis not shown) [Compound Z91-1]
26 nM | > 10 µM |  |  |  |  |  | 58 nM | C=CC(=O)N1CCN2c3nc(=O)n(-c4c(C)ccnc4C(C)C)c4nc(-c5cccc(F)c5F)c(Cl)c(c34)OC[C@H]2C1 (single isomer, unassigned) [Compound Z77-1]
16 nM |  |  |  |  |  | > 10 µM | 53 nM | C=CC(=O)N1CCN2c3nc(=O)n(-c4c(C)ccnc4C(C)C)c4nc(-c5c(O)cccc5F)c(Cl)c(c34)OC[C@@H]2C1 (single isomer, unassigned) [Compound Z24-1]
23 nM |  |  |  |  |  | 3.56 µM | 407 nM | C=CC(=O)N1CCN2c3nc(=O)n(-c4c(C)ccnc4C(C)C)c4nc(-c5cccc(Cl)c5F)c(Cl)c(c34)OC[C@@H]2C1 (single isomer, unassigned) [Compound Z82-1]
40 nM | > 10 µM |  |  |  |  |  | 109 nM | C=CC(=O)N1CCN2c3nc(=O)n(-c4c(C)ccnc4C(C)C)c4nc(-c5ccc(F)cc5F)c(Cl)c(c34)OC[C@H]2C1 (single isomer, unassigned) [Compound Z76-1]
 | > 10 µM | 19 nM |  | 3 nM |  |  |  | C=CC(=O)N1CCN2c3nc(=O)n(-c4c(C)ccnc4C(C)C)c4nc(-c5c(F)cccc5F)c(Cl)c(c34)OC[C@H]2C1 [Compound Z80]
 | > 30 µM | 166 nM |  | 19 nM |  |  |  | C=CC(=O)N1CCN2c3nc(=O)n(-c4c(C)ccnc4C(C)C)c4nc(-c5cc(O)ccc5F)c(Cl)c(c34)OC[C@H]2C1 [Compound Z118]
47 nM | 10.2 µM |  |  |  |  |  | 158 nM | C=CC(=O)N1CCN2c3nc(=O)n(-c4c(C)ccnc4C(C)C)c4nc(-c5ccccc5F)c(Cl)c(c34)OC[C@H]2C1 (single isomer, unassigned) [Compound Z87-1]
 | > 10 µM | 63 nM |  | 5 nM |  |  |  | C=CC(=O)N1CCN2c3nc(=O)n(-c4c(C)ccnc4C(C)C)c4nc(-c5c(O)cccc5F)c(C)c(c34)OC[C@H]2C1 [Compound Z72]
42 nM |  |  |  |  |  | > 10 µM | 314 nM | C=CC(=O)N1CCN2c3nc(=O)n(-c4c(C)ccnc4C(C)C)c4nc(-c5cccc(F)c5F)c(Cl)c(c34)OC[C@@H]2C1 (atropisomer, axis not shown) [Compound Z47-2]
